Each structure is given as a SMILES string.

For one assay, the system named is NCI-H1563. In words: relative viability (nuclei count vs DMSO), 5 days (fraction); higher = more cells survive. As to conditions: first compound 0.08 µM. A digest of the protocol: (§1)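 Dosing by pin tool came one day after lung cancer cell lines were seeded in 1536-well plates, using either one drug or a fixed anchor-drug dose plus five library-drug doses (not always all listed) in √10 steps. After 5 days, nuclei were counted on 4× images. Relative viability is treated-well nuclei count divided by vehicle-well nuclei count, and values are medians of duplicate plates.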
In turn, `CCCCCCCCCCCC1=C(O)C(=O)C=C(O)C1=O` [Embelin] + CS(=O)(=O)N1CCN(Cc2cc3nc(-c4cccc5[nH]ncc45)nc(N4CCOCC4)c3s2)CC1 [Pictilisib] (partner 1 µM) showed a relative viability of 0.661.

Compound `CCCCCCCCCCCC1=C(O)C(=O)C=C(O)C1=O` [Embelin] + Cc1nc(NC(=O)N2CCC[C@H]2C(N)=O)sc1-c1ccnc(C(C)(C)C(F)(F)F)c1 [Alpelisib] (partner 2 µM) came in with a relative viability of 0.845.

Staying with this assay, now noted: first compound 0.8 µM.
With `CCCCCCCCCCCC1=C(O)C(=O)C=C(O)C1=O` [Embelin] + COc1cc2c(Oc3ccc(NC(=O)C4(C(=O)Nc5ccc(F)cc5)CC4)cc3F)ccnc2cc1OCCCN1CCOCC1 [Foretinib] (partner 0.25 µM), the relative viability worked out at 1.09.

For `CCCCCCCCCCCC1=C(O)C(=O)C=C(O)C1=O` [Embelin] + CS(=O)(=O)N1CCN(Cc2cc3nc(-c4cccc5[nH]ncc45)nc(N4CCOCC4)c3s2)CC1 [Pictilisib] (partner 1 µM), the relative viability worked out at 0.786.

Turning to `CCCCCCCCCCCC1=C(O)C(=O)C=C(O)C1=O` [Embelin] + Cc1nc(NC(=O)N2CCC[C@H]2C(N)=O)sc1-c1ccnc(C(C)(C)C(F)(F)F)c1 [Alpelisib] (partner 2 µM), the relative viability was 0.978.

The assay is the same for the next values; noted with them: first compound 2.53 µM.
Regarding `CCCCCCCCCCCC1=C(O)C(=O)C=C(O)C1=O` [Embelin] + COc1cc2c(Oc3ccc(NC(=O)C4(C(=O)Nc5ccc(F)cc5)CC4)cc3F)ccnc2cc1OCCCN1CCOCC1 [Foretinib] (partner 0.25 µM), the relative viability is 0.944.

Take `CCCCCCCCCCCC1=C(O)C(=O)C=C(O)C1=O` [Embelin] + CS(=O)(=O)N1CCN(Cc2cc3nc(-c4cccc5[nH]ncc45)nc(N4CCOCC4)c3s2)CC1 [Pictilisib] (partner 1 µM): the relative viability was determined as 0.517.

`CCCCCCCCCCCC1=C(O)C(=O)C=C(O)C1=O` [Embelin] + Cc1nc(NC(=O)N2CCC[C@H]2C(N)=O)sc1-c1ccnc(C(C)(C)C(F)(F)F)c1 [Alpelisib] (partner 2 µM) gave a relative viability of 0.856.

The assay is the same for the next values; noted with them: first compound 8 µM.
Turning to `CCCCCCCCCCCC1=C(O)C(=O)C=C(O)C1=O` [Embelin] + COc1cc2c(Oc3ccc(NC(=O)C4(C(=O)Nc5ccc(F)cc5)CC4)cc3F)ccnc2cc1OCCCN1CCOCC1 [Foretinib] (partner 0.25 µM), the relative viability was 0.896.

`CCCCCCCCCCCC1=C(O)C(=O)C=C(O)C1=O` [Embelin] + CS(=O)(=O)N1CCN(Cc2cc3nc(-c4cccc5[nH]ncc45)nc(N4CCOCC4)c3s2)CC1 [Pictilisib] (partner 1 µM) showed a relative viability of 0.659.

`CCCCCCCCCCCC1=C(O)C(=O)C=C(O)C1=O` [Embelin] + Cc1nc(NC(=O)N2CCC[C@H]2C(N)=O)sc1-c1ccnc(C(C)(C)C(F)(F)F)c1 [Alpelisib] (partner 2 µM) had a relative viability of 0.913.

In a further assay the test system is NCI-H1944. The assay is described as above. The following applies: first compound 0.08 µM. A digest of the protocol:
as §1
Regarding `CCCCCCCCCCCC1=C(O)C(=O)C=C(O)C1=O` [Embelin] + COc1cc2c(Oc3ccc(NC(=O)C4(C(=O)Nc5ccc(F)cc5)CC4)cc3F)ccnc2cc1OCCCN1CCOCC1 [Foretinib] (partner 0.25 µM), the relative viability was found to be 0.842.

For `CCCCCCCCCCCC1=C(O)C(=O)C=C(O)C1=O` [Embelin] + CC(=O)Nc1cccc(-n2c(=O)n(C3CC3)c(=O)c3c(Nc4ccc(I)cc4F)n(C)c(=O)c(C)c32)c1 [Trametinib] (partner 0.02 µM), the relative viability came to 0.404.

Regarding `CCCCCCCCCCCC1=C(O)C(=O)C=C(O)C1=O` [Embelin] + CS(=O)(=O)N1CCN(Cc2cc3nc(-c4cccc5[nH]ncc45)nc(N4CCOCC4)c3s2)CC1 [Pictilisib] (partner 1 µM), the relative viability was determined as 0.367.

In the case of `CCCCCCCCCCCC1=C(O)C(=O)C=C(O)C1=O` [Embelin] + NC(=O)Nc1cc(-c2cccc(F)c2)sc1C(=O)N[C@H]1CCCNC1 [AZD7762] (partner 0.2 µM), the relative viability was 0.449.

As to `CCCCCCCCCCCC1=C(O)C(=O)C=C(O)C1=O` [Embelin] + Cc1nc(NC(=O)N2CCC[C@H]2C(N)=O)sc1-c1ccnc(C(C)(C)C(F)(F)F)c1 [Alpelisib] (partner 2 µM), the relative viability is 0.818.

Staying with this assay, now noted: first compound 0.8 µM.
In turn, `CCCCCCCCCCCC1=C(O)C(=O)C=C(O)C1=O` [Embelin] + COc1cc2c(Oc3ccc(NC(=O)C4(C(=O)Nc5ccc(F)cc5)CC4)cc3F)ccnc2cc1OCCCN1CCOCC1 [Foretinib] (partner 0.25 µM) registered a relative viability of 0.968.

Take `CCCCCCCCCCCC1=C(O)C(=O)C=C(O)C1=O` [Embelin] + CC(=O)Nc1cccc(-n2c(=O)n(C3CC3)c(=O)c3c(Nc4ccc(I)cc4F)n(C)c(=O)c(C)c32)c1 [Trametinib] (partner 0.02 µM): the relative viability turned out to be 0.436.

On to `CCCCCCCCCCCC1=C(O)C(=O)C=C(O)C1=O` [Embelin] + CS(=O)(=O)N1CCN(Cc2cc3nc(-c4cccc5[nH]ncc45)nc(N4CCOCC4)c3s2)CC1 [Pictilisib] (partner 1 µM), for which the relative viability amounted to 0.383.

As for `CCCCCCCCCCCC1=C(O)C(=O)C=C(O)C1=O` [Embelin] + NC(=O)Nc1cc(-c2cccc(F)c2)sc1C(=O)N[C@H]1CCCNC1 [AZD7762] (partner 0.2 µM), the relative viability came out at 0.566.

Take `CCCCCCCCCCCC1=C(O)C(=O)C=C(O)C1=O` [Embelin] + Cc1nc(NC(=O)N2CCC[C@H]2C(N)=O)sc1-c1ccnc(C(C)(C)C(F)(F)F)c1 [Alpelisib] (partner 2 µM): the relative viability turned out to be 0.925.

The same assay, now with this note: first compound 2.53 µM.
Take `CCCCCCCCCCCC1=C(O)C(=O)C=C(O)C1=O` [Embelin] + COc1cc2c(Oc3ccc(NC(=O)C4(C(=O)Nc5ccc(F)cc5)CC4)cc3F)ccnc2cc1OCCCN1CCOCC1 [Foretinib] (partner 0.25 µM): the relative viability amounted to 0.989.

Take `CCCCCCCCCCCC1=C(O)C(=O)C=C(O)C1=O` [Embelin] + CC(=O)Nc1cccc(-n2c(=O)n(C3CC3)c(=O)c3c(Nc4ccc(I)cc4F)n(C)c(=O)c(C)c32)c1 [Trametinib] (partner 0.02 µM): the relative viability came out at 0.446.

As to `CCCCCCCCCCCC1=C(O)C(=O)C=C(O)C1=O` [Embelin] + CS(=O)(=O)N1CCN(Cc2cc3nc(-c4cccc5[nH]ncc45)nc(N4CCOCC4)c3s2)CC1 [Pictilisib] (partner 1 µM), the relative viability came out at 0.36.

For the compound `CCCCCCCCCCCC1=C(O)C(=O)C=C(O)C1=O` [Embelin] + NC(=O)Nc1cc(-c2cccc(F)c2)sc1C(=O)N[C@H]1CCCNC1 [AZD7762] (partner 0.2 µM), the relative viability turned out to be 0.526.

Regarding `CCCCCCCCCCCC1=C(O)C(=O)C=C(O)C1=O` [Embelin] + Cc1nc(NC(=O)N2CCC[C@H]2C(N)=O)sc1-c1ccnc(C(C)(C)C(F)(F)F)c1 [Alpelisib] (partner 2 µM), the relative viability amounted to 0.875.

The assay is the same for the next values; noted with them: first compound 8 µM.
`CCCCCCCCCCCC1=C(O)C(=O)C=C(O)C1=O` [Embelin] + COc1cc2c(Oc3ccc(NC(=O)C4(C(=O)Nc5ccc(F)cc5)CC4)cc3F)ccnc2cc1OCCCN1CCOCC1 [Foretinib] (partner 0.25 µM) returned a relative viability of 0.998.

`CCCCCCCCCCCC1=C(O)C(=O)C=C(O)C1=O` [Embelin] + CC(=O)Nc1cccc(-n2c(=O)n(C3CC3)c(=O)c3c(Nc4ccc(I)cc4F)n(C)c(=O)c(C)c32)c1 [Trametinib] (partner 0.02 µM) registered a relative viability of 0.428.

The values are drawn from the supplement of paper PMC10307832.
